Data from US10562898B2, “Substituted benzenesulfonamides as inhibitors of alpha-4 beta-7 integrin activity” (EA PHARMA CO., LTD., priority 2016, dated 2020).
pIC50: −log10 of the molar value.

molecular target: T1, α4β7 integrin (Homo sapiens, UniProt P13612+P26010); assay: MAdCAM-1/α4β7 integrin binding inhibitory activity evaluation test (RPMI-8866 cells binding to MAdCAM-1/Fc); type: cell-based; conditions: recombinant mouse MAdCAM-1/Fc, no serum
T1 construct: a cell line RPMI-8866, which is known to express α4β7 integrin; endogenous in cells; host or cells: RPMI-8866 (human B cell line)
T1 sequence (P13612 34-1032): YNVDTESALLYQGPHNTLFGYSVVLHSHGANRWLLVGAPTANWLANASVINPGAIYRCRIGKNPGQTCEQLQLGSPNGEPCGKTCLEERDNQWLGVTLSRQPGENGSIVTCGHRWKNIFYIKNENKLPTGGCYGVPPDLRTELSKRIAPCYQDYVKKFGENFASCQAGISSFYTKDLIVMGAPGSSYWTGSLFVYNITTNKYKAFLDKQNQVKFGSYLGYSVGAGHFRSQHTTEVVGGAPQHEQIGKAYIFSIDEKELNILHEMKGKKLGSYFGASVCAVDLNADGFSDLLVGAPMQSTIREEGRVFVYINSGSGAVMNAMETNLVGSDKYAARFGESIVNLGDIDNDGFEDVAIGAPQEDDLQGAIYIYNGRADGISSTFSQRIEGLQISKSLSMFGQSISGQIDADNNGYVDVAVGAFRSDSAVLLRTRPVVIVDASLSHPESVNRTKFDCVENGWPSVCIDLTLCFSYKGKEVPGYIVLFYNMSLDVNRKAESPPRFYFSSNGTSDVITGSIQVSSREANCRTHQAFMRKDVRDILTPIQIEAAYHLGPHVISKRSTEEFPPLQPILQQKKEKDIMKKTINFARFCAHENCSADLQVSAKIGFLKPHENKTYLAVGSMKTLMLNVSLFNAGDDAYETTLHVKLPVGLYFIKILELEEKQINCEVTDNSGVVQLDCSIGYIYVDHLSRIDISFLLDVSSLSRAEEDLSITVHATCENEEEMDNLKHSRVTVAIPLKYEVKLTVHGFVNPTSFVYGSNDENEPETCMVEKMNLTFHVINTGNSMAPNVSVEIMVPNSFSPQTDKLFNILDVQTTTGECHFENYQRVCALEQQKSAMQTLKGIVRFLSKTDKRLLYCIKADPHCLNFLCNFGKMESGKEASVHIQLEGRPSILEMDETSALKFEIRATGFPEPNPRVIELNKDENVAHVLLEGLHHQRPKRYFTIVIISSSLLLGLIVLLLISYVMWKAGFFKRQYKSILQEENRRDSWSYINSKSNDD
T1 sequence (P26010 20-798): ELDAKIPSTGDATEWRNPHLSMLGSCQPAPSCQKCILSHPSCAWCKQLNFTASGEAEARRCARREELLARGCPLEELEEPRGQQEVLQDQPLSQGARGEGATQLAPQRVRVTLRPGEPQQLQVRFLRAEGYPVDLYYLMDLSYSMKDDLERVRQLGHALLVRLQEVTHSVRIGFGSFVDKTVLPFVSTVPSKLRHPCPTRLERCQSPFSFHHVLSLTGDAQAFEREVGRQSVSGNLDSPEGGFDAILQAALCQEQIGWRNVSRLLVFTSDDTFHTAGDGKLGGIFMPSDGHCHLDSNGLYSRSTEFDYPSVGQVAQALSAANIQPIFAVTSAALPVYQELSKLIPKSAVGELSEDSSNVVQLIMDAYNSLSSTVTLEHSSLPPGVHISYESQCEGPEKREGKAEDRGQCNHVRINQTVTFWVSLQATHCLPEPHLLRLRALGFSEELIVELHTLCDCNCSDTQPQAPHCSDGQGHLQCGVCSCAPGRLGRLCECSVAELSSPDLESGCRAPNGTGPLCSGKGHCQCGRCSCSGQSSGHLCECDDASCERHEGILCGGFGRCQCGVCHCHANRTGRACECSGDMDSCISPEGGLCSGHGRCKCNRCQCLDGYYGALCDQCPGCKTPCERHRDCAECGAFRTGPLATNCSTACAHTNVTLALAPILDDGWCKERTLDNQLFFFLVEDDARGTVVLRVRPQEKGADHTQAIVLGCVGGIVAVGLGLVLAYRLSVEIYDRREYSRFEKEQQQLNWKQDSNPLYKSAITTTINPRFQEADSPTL
Description: (2) MAdCAM-1/α4β7 Integrin Binding Inhibitory Activity Evaluation Test
Each test substance was measured in terms of an ability to inhibit the MAdCAM-1 binding of a human B cell line, namely, a cell line RPMI-8866, which is known to express α4β7 integrin.
A solution of recombinant mouse MAdCAM-1/Fc (R&D Systems, Inc.) (0.75 μg/mL) diluted with a buffer A (carbonate buffer, pH 9.6) was added in an amount of 50 μL/well to a 96-well microtiter plate, followed by incubation at 4° C. overnight. After the plate was washed with PBS once, 150 μL/well of Block Ace (Snow Brand Milk Products Co., Ltd.) was added, followed by incubation at room temperature for 2 hours. After removal, the plate was washed with PBS once.
Then, 100 μL of the RPMI-8866 cells (2×10^6 cells/mL) and 100 μL of the test substance at each of various concentrations diluted with a binding buffer (DMEM containing 40 mM HEPES, 0.2% BSA, and 4 mM MnCl2) were added on the plate coated with the MAdCAM-1/Fc (5×10^5 cells/well), followed by incubation at 30° C. for 15 to 60 minutes. After the cells were bound to the wells, the plate was washed with PBS to remove unbound cells. A buffer C (PBS containing 1.5% Triton X-100) in an amount 50 μL/well was added to the plate to lyse the bound RPMI-8866 cells. After 30 μL of a substrate buffer (Promega, CytoTox 96 Non-Radioactive Cytotoxicity Assay) was added to 30 μL of the cell lysate, a reaction was allowed to proceed at room temperature in the dark for 30 minutes. After 30 μL of a stop solution (Promega, CytoTox 96 Non-Radioactive Cytotoxicity Assay) was added to each, and then an absorbance at 490 nm was measured using a plate reader. The absorbance obtained here represents a detection result of an activity of lactate dehydrogenase (LDH) eluted in the supernatant of each well, that is, the absorbance is proportional to the number of RPMI-8866 cells bound to the MAdCAM-1 and thus remaining on the plate. The test was performed in duplicate. Provided that the absorbance of the well containing no test substance was 100%, a cell binding rate with the test substance at each of the various concentrations was figured out, and a concentration IC50 which brought about 50% binding inhibition was calculated.

`Cc1c(C)n(C)c(=O)n(-c2ccc(C[C@H](NC(=O)c3cc(F)c(NS(=O)(=O)c4ccc(NC(=O)C(C)(C)CO)cc4)cc3F)C(=O)O)cc2)c1=O` [Compound A21] and `Cc1c(C)n(C)c(=O)n(-c2ccc(C[C@H](NC(=O)c3cc(F)c(NS(=O)(=O)c4ccc(NC(=O)C(C)(C)C)cc4)cc3F)C(=O)O)cc2)c1=O` [Compound A8] are within 0.2 log units of each other in pIC50: 9.47 for the first, 9.48 for the second.

Compared with `Cn1c(=O)n(-c2ccc(C[C@H](NC(=O)c3cc(F)c(NS(=O)(=O)c4ccc(NC(=O)C(C)(C)C)cc4)cc3F)C(=O)O)cc2)c(=O)c2ccncc21` [Compound A1, (2S)-2-[[4-[[4-(2,2-dimethylpropanoylamino)phenyl]sulfonylamino]-2,5-difluoro-benzoyl]amino]-3-[4-(1-methyl-2,4-dioxo-pyrido[3,4-d]pyrimidin-3-yl)phenyl]propanoic acid], `Cn1c(=O)n(-c2ccc(C[C@H](NC(=O)c3cc(F)c(NS(=O)(=O)c4ccc(NC(=O)NC(C)(C)C)cc4)cc3F)C(=O)O)cc2)c(=O)c2ccncc21` [Compound A5] is 0.95 log units lower in pIC50: 9.59 for the first, 8.64 for the second.

First: CN1C(=O)N(c2ccc(S(=O)(=O)Nc3cc(F)c(C(=O)N[C@@H](Cc4ccc(-n5c(=O)c6ccncc6n(C)c5=O)nc4)C(=O)O)cc3F)cc2)C(=O)C1(C)C [Compound A38]
Second: Cn1c(=O)n(-c2ccc(C[C@H](NC(=O)c3cc(F)c(NS(=O)(=O)c4ccc(NC(=O)C(C)(C)C)cc4)cc3F)C(=O)O)cn2)c(=O)c2ccncc21 [Compound A26]
The pIC50 of the first is 1.36 log units lower: 8.28 for the first, 9.64 for the second. The second is the more potent here.

Going from `Cc1cn(C)c(=O)n(-c2ccc(C[C@H](NC(=O)c3cc(F)c(NS(=O)(=O)c4ccc(NC(=O)C5CCCC5)cc4)cc3F)C(=O)O)cn2)c1=O` [Compound A65] to `Cc1cn(C)c(=O)n(-c2ccc(C[C@H](NC(=O)c3cc(F)c(NS(=O)(=O)c4ccc(NC(=O)C(C)(C)C)cc4)cc3F)C(=O)O)cn2)c1=O` [Compound A54], the pIC50 rises from 8.48 to 8.80 (0.32 log units). The second is the more potent here.

First: Cc1c(C)n(C)c(=O)n(-c2ccc(C[C@H](NC(=O)c3cc(F)c(NS(=O)(=O)c4ccc(NC(=O)C(C)(C)C)cc4)cc3F)C(=O)O)cn2)c1=O [Compound A28]
Second: Cc1c(C)n(C)c(=O)n(-c2ccc(C[C@H](NC(=O)c3cc(F)c(NS(=O)(=O)c4ccc(NC(=O)C(C)(C)C)nc4)cc3F)C(=O)O)cc2)c1=O [Compound A25]
The pIC50 of the first is 0.29 log units higher: 9.25 for the first, 8.96 for the second. The first is the more potent here.

Compared with `Cc1c(C)n(C)c(=O)n(-c2ccc(C[C@H](NC(=O)c3cc(F)c(NS(=O)(=O)c4ccc(N(C)C(=O)C(C)(C)C)cc4)cc3F)C(=O)O)cc2)c1=O` [Compound A35], `Cc1c(C)n(C)c(=O)n(-c2ccc(C[C@H](NC(=O)c3cc(F)c(NS(=O)(=O)c4ccc(NC(=O)C(C)(C)C)s4)cc3F)C(=O)O)cc2)c1=O` [Compound A10] is 1.41 log units higher in pIC50: 8.01 for the first, 9.42 for the second. The second is the more potent here.

Going from `Cc1c(C)n(C)c(=O)n(-c2ccc(C[C@H](NC(=O)c3cc(F)c(NS(=O)(=O)c4cc(NC(=O)C(C)(C)C)cs4)cc3F)C(=O)O)cc2)c1=O` [Compound A11] to `Cc1c(C)n(C)c(=O)n(-c2ccc(C[C@H](NC(=O)c3cc(F)c(NS(=O)(=O)c4ccc(NC(=O)C(C)(C)C)cn4)cc3F)C(=O)O)cc2)c1=O` [Compound A19], the pIC50 rises from 8.70 to 9.41 (0.71 log units). The second is the more potent here.

Compared with `Cc1c(C)n(C)c(=O)n(-c2ccc(C[C@H](NC(=O)c3cc(F)c(NS(=O)(=O)c4ccc(NC(=O)C5(C(F)(F)F)CC5)cc4)cc3F)C(=O)O)cc2)c1=O` [Compound A20], `Cc1c(C)n(C)c(=O)n(-c2ccc(C[C@H](NC(=O)c3cc(F)c(NS(=O)(=O)c4ccc(NC(=O)C5CCOCC5)cc4)cc3F)C(=O)O)cc2)c1=O` [Compound A15] is 0.57 log units lower in pIC50: 9.60 for the first, 9.03 for the second. The first is the more potent here.

First: Cn1ccc(=O)n(-c2ccc(C[C@H](NC(=O)c3cc(F)c(NS(=O)(=O)c4ccc(NC(=O)C(C)(C)C)cc4)cc3F)C(=O)O)nc2)c1=O [Compound A70]
Second: Cn1ccc(=O)n(-c2ccc(C[C@H](NC(=O)c3cc(F)c(NS(=O)(=O)c4ccc(NC(=O)C(C)(C)C)cc4)cc3F)C(=O)O)cc2)c1=O [Compound A42]
The pIC50 of the first is 0.64 log units lower: 8.47 for the first, 9.11 for the second. The second is the more potent here.

First: Cn1c(=O)n(-c2ccc(C[C@H](NC(=O)c3cc(F)c(NS(=O)(=O)c4ccc(NC(=O)C5(O)CC5)cc4)cc3F)C(=O)O)cc2)c(=O)c2ccncc21 [Compound A23]
Second: COC1(C(=O)Nc2ccc(S(=O)(=O)Nc3cc(F)c(C(=O)N[C@@H](Cc4ccc(-n5c(=O)c6ccncc6n(C)c5=O)cc4)C(=O)O)cc3F)cc2)CC1 [Compound A16]
The pIC50 of the first is 0.28 log units lower: 9.00 for the first, 9.28 for the second.

First: Cn1c(=O)n(-c2ccc(C[C@H](NC(=O)c3cc(F)c(NS(=O)(=O)c4ccc(NC(=O)C(C)(C)C)cn4)cc3F)C(=O)O)cn2)c(=O)c2ccncc21 [Compound A31]
Second: Cn1c(=O)n(-c2ccc(C[C@H](NC(=O)c3cc(F)c(NS(=O)(=O)c4ccc(NC(=O)C(C)(C)C)s4)cc3F)C(=O)O)cc2)c(=O)c2ccncc21 [Compound A9]
The pIC50 of the first is 0.24 log units lower: 9.15 for the first, 9.39 for the second. The second is the more potent here.

First: Cc1cn(C)c(=O)n(-c2ccc(C[C@H](NC(=O)c3cc(F)c(NS(=O)(=O)c4c[nH]c5cc(NC(=O)C(C)(C)C)ccc45)cc3F)C(=O)O)cn2)c1=O [Compound A77]
Second: Cc1cn(C)c(=O)n(-c2ccc(C[C@H](NC(=O)c3cc(F)c(NS(=O)(=O)c4ccc5c(NC(=O)C(C)(C)C)c[nH]c5c4)cc3F)C(=O)O)cn2)c1=O [Compound A74]
The pIC50 of the first is 0.33 log units higher: 8.44 for the first, 8.11 for the second. The first is the more potent here.

Compared with `CC(=O)Nc1ccc(S(=O)(=O)Nc2cc(F)c(C(=O)N[C@@H](Cc3ccc(-n4c(=O)c5ccncc5n(C)c4=O)cc3)C(=O)O)cc2F)cc1` [Compound A2], `Cn1ccc(=O)n(-c2ccc(C[C@H](NC(=O)c3cc(F)c(NS(=O)(=O)c4ccc(NC(=O)C5(C#N)CC5)cc4)cc3F)C(=O)O)cn2)c1=O` [Compound A59] is 0.44 log units lower in pIC50: 8.92 for the first, 8.48 for the second.

`Cn1ccc(=O)n(-c2ccc(C[C@H](NC(=O)c3cc(F)c(NS(=O)(=O)c4ccc(NC(=O)C(C)(C)C(F)(F)F)cc4)cc3F)C(=O)O)cn2)c1=O` [Compound A57] and `Cc1cn(C)c(=O)n(-c2ccc(C[C@H](NC(=O)c3cc(F)c(NS(=O)(=O)c4ccc(NC(=O)C(C)(C)C(F)(F)F)cc4)cc3F)C(=O)O)cn2)c1=O` [Compound A58] are within 0.2 log units of each other in pIC50: 8.70 for the first, 8.89 for the second.
